Consider twelve molecules from patent US20150202212A1, “METHODS FOR IDENTIFYING AGENTS FOR TREATING SMOOTH MUSCLE DISORDERS AND COMPOSITIONS THEREOF” (University of Massachusetts Medical School, priority 2012, published 2015).

Assay [1] deals with isolated mouse airway smooth muscle cells. The experiment in a line: Measurement of global [Ca2+]i (fluo-3) in freshly isolated mouse airway smooth muscle cells. The note with it: for effect on chloroquine-induced reversal of the KCl-induced increase in [Ca2+]i: PTX 1 μg/ml 6-8 hours, gallein 20 μM, Anti-βγ 1 μM, U73122, 2-ABP at concentrations of FIG. 5; for chloroquine-induced increase in global [Ca2+]i, % of control: resting cells, PTX 1 μg/ml 6-8 hr, gallein 20 μM 30 min, Anti-βγ 1 μM 1 hr, U73122 3 μM, 2-APB 50 μM; for effect on chloroquine's reduction of the Mch-induced [Ca2+]i increase: 10 μM FPL, single cell level. It counts as cell-based. As for the experimental part: (§1) The tracheas and bronchi were dissected free from the surface of the connective tissue. The tissue was incubated in the dissociation medium containing papain 30 unit/ml, 1 mM DTT, and 0.5 mg/ml BSA, at 35° C. for 30 min, and then transferred to a dissociation medium containing 3 unit/ml collagenase F and 0.5 mg/mL BSA, and incubated at 35° C. for another 15 min to produce isolated ASM cells. Finally, the tissue was agitated with a fire polished wide-bore glass pipette to release the cells.
Fluorescence images using fluo-3 as a calcium indicator were obtained using a custom-built wide-field digital imaging system. The camera was interfaced to a custom made inverted microscope, and the cells were imaged using either a 20× Nikon 1.3 NA for global [Ca^2+] measurement or a 60× Nikon 1.4 NA oil for Ca^2+ spark measurement. […] The images were acquired at the speed of either 1 Hz for global [Ca^2+] measurement or 50 Hz for Ca^2+ spark measurement. Subsequent image processing and analysis was performed off line using a custom-designed software package, running on a Linux/PC workstation. [Ca^2+]i was represented as ΔF/F0*100 with F calculated by integrating fluo-3 over entire cells for global [Ca^2+], or just the value at the brightest pixel (i.e., epicenter pixel) for Ca^2+ sparks.
All chemicals, except fluo-3 (Invitrogen Co, San Diego, Calif., USA), gallein (Tocris Bioscience, Bristol, United Kingdom), and Anti-βγ blocking peptide (AnaSpec, Fremont, Calif., USA), were purchased from Sigma-Aldrich Co. (St. Louis, Mo., USA). For single cell studies, agonists and antagonists were applied locally to cells via a picospritzer at a constant pressure, so that the duration of its action and concentration could be controlled easily.

The subject of assay [2] is mouse internal anal sphincter. The experiment in a line: Spontaneous tone of mouse internal anal sphincter. To be noted: for relaxation of smooth muscle from internal anal sphincter: mouse. The text has this: The spontaneous tone contributes about 70% of the basal tonus that maintains fecal continence in human and animals.
For assay [3], the system named is pulmonary artery from mouse. The assay is described as follows: Relaxation of smooth muscle from mouse pulmonary artery.
Assay [4] relates to isolated smooth muscle cells from mouse internal anal sphincter. The assay is described as follows: [Ca2+]i in isolated smooth muscle cells from mouse internal anal sphincter. To be noted: CDCA 100 μM; chloroquine 1 mM; denatonium 1 mM. It is filed as cell-based. The text has this:
Fluorescence images using fluo-3 as a calcium indicator were obtained using a custom-built wide-field digital imaging system. The camera was interfaced to a custom made inverted microscope, and the cells were imaged using either a 20× Nikon 1.3 NA for global [Ca^2+] measurement or a 60× Nikon 1.4 NA oil for Ca^2+ spark measurement. The 488 nm line of an Argon Ion laser provided fluorescence excitation, with a shutter to control exposure duration, and emission of the Ca^2+ indicator was monitored at wavelengths >500 nm. The images were acquired at the speed of either 1 Hz for global [Ca^2+] measurement or 50 Hz for Ca^2+ spark measurement. Subsequent image processing and analysis was performed off line using a custom-designed software package, running on a Linux/PC workstation. [Ca^2+]i was represented as ΔF/F0*100 with F calculated by integrating fluo-3 over entire cells for global [Ca^2+], or just the value at the brightest pixel (i.e., epicenter pixel) for Ca^2+ sparks.

In assay [5] the test system is mouse airways (trachea and bronchi rings). The experiment in a line: Mouse airway smooth muscle contraction bioassay (isometric tension). The note with it: for relaxation of smooth muscle from airways: mouse; for reversal (relaxation) of KCl-induced tension: 60 mM KCl, chloroquine, denatonium 1 mM. The source says: C57/BL6 mice at 7-12 weeks of age were sacrificed and the entire respiratory trees were rapidly removed and immersed in Krebs physiologic solution containing (in mM) 118.07 NaCl, 4.69 KCl, 2.52 CaCl2, 1.16 MgSO4, 1.01 NaH2PO4, 25 NaHCO3, and 11.10 glucose. Trachea and bronchi were isolated and cut into rings (4 mm in length). The rings were mounted on a wire myograph chamber (Danish Myo Technology, Aarhus, Denmark), and a PowerLab recording device (AD Instruments) was used to record isometric tension. The ring preparations with zero tension were immersed in 5 ml of Krebs physiologic solution, bubbled with 95% 02 and 5% CO2 at 37° C. The basal tones were set at the level of approximately 2 mN.

The subject of assay [6] is human intrapulmonary bronchi. The assay is described as follows: Force measurement in human intrapulmonary airways. The note with it: for relaxation of smooth muscle from airways: human; for reversal (relaxation) of KCl-induced tension: KCl (60 mM), chloroquine, denatonium 1 mM. The source says:
Trachea and bronchi were isolated and cut into rings (4 mm in length). The rings were mounted on a wire myograph chamber (Danish Myo Technology, Aarhus, Denmark), and a PowerLab recording device (AD Instruments) was used to record isometric tension. […] Human lung tissue was obtained (with informed consent) from patients undergoing surgery (lobectomy) for lung cancer at the Department of Surgery and the Department of Pathology at the Univ. of Massachusetts Memorial Med Ctr (Worcester, Mass.). The tumors were identified as nonsmall cell carcinoma (adenocarcinoma, squamous cell carcinoma). Intrapulmonary airways were dissected out and cleaned free of the connective tissues. These airways were either cut into the rings ([…]) for force measurements the same as for mouse airway tissues, or digested with the same enzymes, dissociation medium and isolation procedure as for single mouse ASM cells. The experimental protocols on human tissues were approved by the Committee for Protection of Human Subjects in Research at the University of Massachusetts Medical School (Protocol 13590 to R.Z).

Another assay has as its system human pulmonary arteries. The assay is described as follows: Relaxation of human pulmonary arteries pre-contracted by KCl. To be noted: for relaxation of smooth muscle from pulmonary artery: human; for relaxation of human pulmonary arteries: pre-contracted by KCl. The text has this:
Human specimen were provided by Univ. Mass. Memorial Medical Center.

The next assay deals with mouse urethra. The experiment in a line: Mouse urethral contraction induced by contractile agonists. To be noted: for relaxation of smooth muscle from urethra: mouse. The source says: […] were pretreated with bitter tastants, and then stimulated with contractile agonists. Contractile agonists alone were used as the control.
The next assay has as its system Mouse ASM cells. The experiment in a line: Measurement of cell shortening in mouse ASM cells. To be noted: Mch 100 μM; n=21. It is filed as cell-based. How it is done: as §1, with “the cells. Myocytes were placed into a recording chamber superfused with the bath solution for patch clamp experiments at room temperature. Cells loaded with Fluo-3 were imaged using a custom-built wide-field digital imaging system and their lengths were determined using custom software to manually trace down the center of the cell.” for “the cells.”

In the next assay the test system is mouse airway strips. To be noted: all at 1 mM; [Ca2+]i clamped; α-toxin permeabilized.
The mark [7] stands for this setting: pretreatment, Chloro 1 mM, CDCA 100 μM.

“Also recorded” adds a separate entry of the source. Read-outs that look alike come from different tables or passages of the source.

In the case of `NCCOB(c1ccccc1)c1ccccc1` [2-APB, 2-Aminoethoxydiphenyl borate], in assay [1], the “effect on chloroquine-induced reversal of the KCl-induced increase in [Ca2+]i” value (from here on “effect … of the KCl-induced increase in [Ca2+]i”) is on record as “failed to alter” and the “chloroquine-induced increase in global [Ca2+]i, % of control” value was −10.5±7.3%.
Regarding `C[C@H](CCC(=O)O)[C@H]1CC[C@H]2[C@@H]3[C@H](O)C[C@@H]4C[C@H](O)CC[C@]4(C)[C@H]3CC[C@]12C` [CDCA, chenodeoxycholic acid], in [2], the “effect on spontaneous tone” value was “reversed totally” and the “relaxation of smooth muscle from internal anal sphincter” value is on record as “fully relax”. The “relaxation of smooth muscle from pulmonary artery” value (“relaxation … from pulmonary artery” for short) in assay [3] is listed as “fully relax”. In [4], the “effect on the increase in [Ca2+]i induced by 60 mM KCl” value is on record as “reversibly inhibited”. For the same molecule, in assay [5], the “relaxation of smooth muscle from airways” value is on record as “fully relax”. Moreover, the “relaxation of smooth muscle from airways” value in [6] is listed as “fully relax”. For the same molecule, the “relaxation … from pulmonary artery” value in the assay with human pulmonary arteries is recorded as “fully relax”. In addition, the “relaxation of smooth muscle from urethra” value in the assay with mouse urethra is “fully relax”. Moreover, the “effect on 10 μM methacholine-induced contraction” value in the assay on mouse urethra (pretreatment, CDCA 100 μM) is “inhibited”. For the same molecule, in the assay with mouse urethra (setting [7]), the “effect on 60 mM KCl-induced contraction” value is “blocked” and the “effect on alpha1-agonist phenylephrine-induced contraction” value is reported as “inhibited”.
For the molecule `C[C@H](CCC(=O)O)[C@H]1CC[C@H]2[C@@H]3CC[C@@H]4C[C@H](O)CC[C@]4(C)[C@H]3C[C@H](O)[C@]12C` [DCA, deoxycholic acid], in assay [2], the “relaxation of smooth muscle from internal anal sphincter” value is “fully relax”. In addition, the “relaxation … from pulmonary artery” value (in assay [3]; with human pulmonary arteries) was “fully relax” each time. Also, the “relaxation of smooth muscle from airways” value in assay [5] and in assay [6] was “fully relax” each time. Moreover, the “reversal (relaxation) of KCl-induced tension” value (“reversal (relaxation)” for short) in assay [6] (human airways) is recorded as “fully relaxed”. In the assay with human pulmonary arteries, the “relaxation of human pulmonary arteries” value is listed as “markedly relaxed”. Also, the “relaxation of smooth muscle from urethra” value in the assay with mouse urethra is “fully relax”.
Regarding `COC(=O)c1c(C)[nH]c(C)c1C(=O)c1ccccc1Cc1ccccc1` [FPL, FPL 64176], the “effect on chloroquine-induced relaxation in ASM pre-contracted by KCl” value in assay [5] (KCl 60 mM) is given as “dose-dependently reversed; also recorded: dose-dependently inhibited”. The “effect on chloroquine-induced relaxation of Mch precontracted airways” value in [5] (tissue level) is recorded as “prevent chloroquine from relaxing; also recorded: dose-dependently reversed”. For the same molecule, the “effect on chloroquine's reduction of [Ca2+]i in cells stimulated by KCl” value is on record as “prevented” in assay [1] and “inhibited” in [1] (listed as FPL 64176). For the same molecule, the “effect on chloroquine's reduction of the Mch-induced [Ca2+]i increase” value is “prevent chloroquine from reducing” in assay [1] and “prevented chloro from reversing” in assay [1] (listed as FPL 64176).
Consider `[Cl-].[K+]` [KCl], for which, in assay [1] (KCl 60 mM, without diltiazem, n=9), the “KCl-induced increase in ΔF/F0” value is listed as 122±19%.
As to `CC(=O)OC(C)C[N+](C)(C)C` (stereo not shown) [Mch, methacholine], the “contraction (tension) of mouse airways at rest” value in assay [5] (1 mM chloro, 100 μM Mch) is recorded as “robust contraction”. In addition, in assay [5] (Ca2+ free medium), the “tension generated in Ca2+ free medium, % of that in the presence of extracellular Ca2+” value is reported as “less than 20%”. Besides, in assay [5] (chloroquine 10 μM-1 mM, Mch 0.1-10 μM), the “contraction (force) of mouse airways at rest” value was “induced contraction markedly”. For the same molecule, the cell shortening in the assay on Mouse ASM cells came out at 49±8%. The “increase in fluo-3 fluorescence (ΔF/F0)” value in [1] (Mch 100 μM) came to 162±26%.
In the case of `COc1ccc2c(c1)CC[C@@H]1[C@@H]2CC[C@]2(C)[C@@H](NCCCCCCN3C(=O)C=CC3=O)CC[C@@H]12` [U73122], in [1], the “effect … of the KCl-induced increase in [Ca2+]i” value is “failed to alter” and the “chloroquine-induced increase in global [Ca2+]i, % of control” value worked out at 18.0±5.5%.
In the case of `CC[N+](CC)(CC(=O)Nc1c(C)cccc1C)Cc1ccccc1` [denatonium], in assay [2], the “effect on spontaneous tone” value was “enhanced”. Further, the “effect on the increase in [Ca2+]i induced by 60 mM KCl” value in [4] is “did not affect”. Further, the “reversal (relaxation)” value in [5] (mouse airways) is recorded as “fully reversed; also recorded: relaxed”; in assay [6] (human airways), “fully reversed”. Moreover, the “relaxation of human pulmonary arteries” value in the assay with human pulmonary arteries is on record as “failed to exert any effect”. Also, the “relaxation of ASM at fixed [Ca2+]i” value with mouse airway strips is “failed to relax”.
As to `COc1ccc([C@@H]2Sc3ccccc3N(CCN(C)C)C(=O)[C@@H]2OC(C)=O)cc1` [diltiazem], the “reversal of the KCl-induced contraction” value in [5] (KCl 60 mM, n=6) stood at 93.1±4.8%. Also, the “reversal of Mch-induced airway force generation” value is reported as “dose-dependently reversed” in [5] (mouse airways) and “dose-dependently reversed” in assay [6] (human airways, 10 μM Mch). Also, the “reversal (relaxation)” value in assay [5] (mouse airways) and in [6] (human airways) was “relaxed” in each case. The “KCl-induced increase in ΔF/F0 after diltiazem pretreatment” value in assay [1] (10 μM diltiazem pretreatment, KCl 60 mM, n=9) turned out to be 16.8±10%. Also, the “effect on KCl (60 mM)-induced increase in [Ca2+]i” value in assay [1] (prior application of diltiazem 100 μM) was “blocked”. The “reversal of the Mch-induced increase in [Ca2+]” value in assay [1] (single isolated mouse ASM cells, n=12) is 90.2±2.9%.
Regarding `O=C1OC2(c3ccccc31)c1ccc(O)c(O)c1Oc1c2ccc(O)c1O` [gallein], in [1], the “effect … of the KCl-induced increase in [Ca2+]i” value is given as “prevented” and the “chloroquine-induced increase in global [Ca2+]i, % of control” value stood at 19.9±8.5%.
For “MPS-phosducin-like protein C terminus [Anti-βγ]”, in that order: “prevented” and 18.4±4.8%.
With pertussis toxin [PTX], in [1], the “effect … of the KCl-induced increase in [Ca2+]i” value is recorded as “prevented” and the “chloroquine-induced increase in global [Ca2+]i, % of control” value stood at 21.1±8.6%.
